Columns and labels:
Assay in all cases: Field trial, tank mix of Propaquizafop + Fomesafen on Soybean, weed control
Assay type in all cases: in vivo
Commelina benghalensis = tested on: Commelina benghalensis
Description: (§1) In the context of the present subject matter, the term “synergy” is as defined by Colby S. R. in an article entitled “Calculation of the synergistic and antagonistic responses of herbicide combinations” published in the journal Weeds, 1967, 15, p. 20-22, incorporated herein by reference in its entirety. The action expected for a given combination of […] active ingredients can be calculated as follows: […]
(§2) When the percentage of herbicidal control observed for the combination is greater than the expected percentage, there is a synergistic effect. When the percentage of control observed for the combination is equal to the expected percentage, there is an additive effect and wherein the percentage of herbicidal control observed for the combination is lower than the expected percentage, there is an antagonistic effect.
(§3) The herbicides were applied using the following applications rates:
(§4) The applications were applied 20 DAS. Design & Plot size: RBD & 25 Sq.mt.
(§5) Species wise weed count may be recorded at 15, 30 and 45 DAA (Days After Application). A subjective score of damage done by the herbicide on the plants may be given based on the weed count compared to the untreated checks. A score of 100% indicated complete control and a score of 0% indicates zero herbicide effect.
(§6) The % control observed may be calculated as follows: […]
(§7) The synergy of the mixture of fomesafen and propaquizafop may be calculated using the formula: […]

Amaranthus viridis = tested on: Amaranthus viridis
Description: as §1, §2, §3, §4, §5, §6, §7

Echinochloa colona = tested on: Echinochloa colona
Description: as §1, §2, §3, §4, §5, §6, §7

Digera arvensis = tested on: Digera arvensis
Description: as §1, §2, §3, §4, §5, §6, §7

Eleusine indica = tested on: Eleusine indica
Description: as §1, §2, §3, §4, §5, §6, §7

Acalypha indica = tested on: Acalypha indica
Description: as §1, §2, §3, §4, §5, §6, §7

Dinebra arabica = tested on: Dinebra arabica
Description: as §1, §3, §4, §5

Structure (SMILES): CS(=O)(=O)NC(=O)c1cc(Oc2ccc(C(F)(F)F)cc2Cl)ccc1[N+](=O)[O-] [Fomesafen, 5-[2-chloro-4-(trifluoromethyl)phenoxy]-N-(methylsulfonyl)-2-nitrobenzamide]
- % control observed (Commelina benghalensis; 500 ml/Acre, 15DAA): 66.2%
- % control observed (Commelina benghalensis; 500 ml/Acre, 30DAA): 64.2%
- % control observed (Commelina benghalensis; 500 ml/Acre, 45DAA): 62.7%
- % control observed (Commelina benghalensis; 750 ml/Acre, 15DAA): 72.8%
- % control observed (Commelina benghalensis; 750 ml/Acre, 30DAA): 70.2%
- % control observed (Commelina benghalensis; 750 ml/Acre, 45DAA): 69.7%
- % control observed (Commelina benghalensis; 1000 ml/Acre, 15DAA): 77.8%
- % control observed (Commelina benghalensis; 1000 ml/Acre, 30DAA): 75%
- % control observed (Commelina benghalensis; 1000 ml/Acre, 45DAA): 72.5%
- % control observed (Amaranthus viridis; 500 ml/Acre, 15DAA): 67.7%
- % control observed (Amaranthus viridis; 500 ml/Acre, 30DAA): 66.9%
- % control observed (Amaranthus viridis; 500 ml/Acre, 45DAA): 64.8%
- % control observed (Amaranthus viridis; 750 ml/Acre, 15DAA): 71.3%
- % control observed (Amaranthus viridis; 750 ml/Acre, 30DAA): 70.5%
- % control observed (Amaranthus viridis; 750 ml/Acre, 45DAA): 69.1%
- % control observed (Amaranthus viridis; 1000 ml/Acre, 15DAA): 74.7%
- % control observed (Amaranthus viridis; 1000 ml/Acre, 30DAA): 73.7%
- % control observed (Amaranthus viridis; 1000 ml/Acre, 45DAA): 71.1%
- % control observed (Echinochloa colona; 500 ml/Acre, 15DAA): 8.91%
- % control observed (Echinochloa colona; 500 ml/Acre, 30DAA): 6.65%
- % control observed (Echinochloa colona; 500 ml/Acre, 45DAA): 5.02%
- % control observed (Echinochloa colona; 750 ml/Acre, 15DAA): 14%
- % control observed (Echinochloa colona; 750 ml/Acre, 30DAA): 10.7%
- % control observed (Echinochloa colona; 750 ml/Acre, 45DAA): 7.5%
- % control observed (Echinochloa colona; 1000 ml/Acre, 15DAA): 18.2%
- % control observed (Echinochloa colona; 1000 ml/Acre, 30DAA): 15.8%
- % control observed (Echinochloa colona; 1000 ml/Acre, 45DAA): 13.6%
- % control observed (Digera arvensis; 500 ml/Acre, 15DAA): 70%
- % control observed (Digera arvensis; 500 ml/Acre, 30DAA): 68.5%
- % control observed (Digera arvensis; 500 ml/Acre, 45DAA): 66.6%
- % control observed (Digera arvensis; 750 ml/Acre, 15DAA): 74.2%
- % control observed (Digera arvensis; 750 ml/Acre, 30DAA): 71.5%
- % control observed (Digera arvensis; 750 ml/Acre, 45DAA): 70.5%
- % control observed (Digera arvensis; 1000 ml/Acre, 15DAA): 78.2%
- % control observed (Digera arvensis; 1000 ml/Acre, 30DAA): 75.2%
- % control observed (Digera arvensis; 1000 ml/Acre, 45DAA): 74%
- % control observed (Eleusine indica; 500 ml/Acre, 15DAA): 8.2%
- % control observed (Eleusine indica; 500 ml/Acre, 30DAA): 4.7%
- % control observed (Eleusine indica; 500 ml/Acre, 45DAA): 3.3%
- % control observed (Eleusine indica; 750 ml/Acre, 15DAA): 12.6%
- % control observed (Eleusine indica; 750 ml/Acre, 30DAA): 6.3%
- % control observed (Eleusine indica; 750 ml/Acre, 45DAA): 5%
- % control observed (Eleusine indica; 1000 ml/Acre, 15DAA): 17.1%
- % control observed (Eleusine indica; 1000 ml/Acre, 30DAA): 8.9%
- % control observed (Eleusine indica; 1000 ml/Acre, 45DAA): 7.5%
- % control observed (Acalypha indica; 500 ml/Acre, 15DAA): 58.2%
- % control observed (Acalypha indica; 500 ml/Acre, 30DAA): 55.4%
- % control observed (Acalypha indica; 500 ml/Acre, 45DAA): 53.8%
- % control observed (Acalypha indica; 750 ml/Acre, 15DAA): 63.8%
- % control observed (Acalypha indica; 750 ml/Acre, 30DAA): 61.7%
- % control observed (Acalypha indica; 750 ml/Acre, 45DAA): 60.6%
- % control observed (Acalypha indica; 1000 ml/Acre, 15DAA): 75.9%
- % control observed (Acalypha indica; 1000 ml/Acre, 30DAA): 73.6%
- % control observed (Acalypha indica; 1000 ml/Acre, 45DAA): 72.6%
- % control observed (Dinebra arabica; 500 ml/Acre, 15DAA): 2.62%
- % control observed (Dinebra arabica; 500 ml/Acre, 45DAA): 0.21%
- % control observed (Dinebra arabica; 750 ml/Acre, 15DAA): 15.2%
- % control observed (Dinebra arabica; 750 ml/Acre, 30DAA): 11.1%
- % control observed (Dinebra arabica; 750 ml/Acre, 45DAA): 10%
- % control observed (Dinebra arabica; 1000 ml/Acre, 15DAA): 23.4%
- % control observed (Dinebra arabica; 1000 ml/Acre, 30DAA): 16.4%
- % control observed (Dinebra arabica; 1000 ml/Acre, 45DAA): 14.3%

Structure (SMILES): CC(C)=NOCCOC(=O)[C@@H](C)Oc1ccc(Oc2cnc3cc(Cl)ccc3n2)cc1 [Propaquizafop, (R)-2-[[(1-methylethylidene)amino]oxy]ethyl 2-[4-[(6-chloro-2-quinoxalinyl)oxy]phenoxy]propanoate]
- % control observed (Commelina benghalensis; 400 ml/Acre, 15DAA): 6.8%
- % control observed (Commelina benghalensis; 400 ml/Acre, 30DAA): 3.2%
- % control observed (Commelina benghalensis; 400 ml/Acre, 45DAA): 2%
- % control observed (Commelina benghalensis; 500 ml/Acre, 15DAA): 16.6%
- % control observed (Commelina benghalensis; 500 ml/Acre, 30DAA): 10.5%
- % control observed (Commelina benghalensis; 500 ml/Acre, 45DAA): 7.7%
- % control observed (Amaranthus viridis; 400 ml/Acre, 15DAA): 8.2%
- % control observed (Amaranthus viridis; 400 ml/Acre, 30DAA): 2.6%
- % control observed (Amaranthus viridis; 400 ml/Acre, 45DAA): 2.3%
- % control observed (Amaranthus viridis; 500 ml/Acre, 15DAA): 13.6%
- % control observed (Amaranthus viridis; 500 ml/Acre, 30DAA): 7.6%
- % control observed (Amaranthus viridis; 500 ml/Acre, 45DAA): 7.1%
- % control observed (Echinochloa colona; 400 ml/Acre, 15DAA): 72.9%
- % control observed (Echinochloa colona; 400 ml/Acre, 30DAA): 70.8%
- % control observed (Echinochloa colona; 400 ml/Acre, 45DAA): 70.4%
- % control observed (Echinochloa colona; 500 ml/Acre, 15DAA): 75.8%
- % control observed (Echinochloa colona; 500 ml/Acre, 30DAA): 73.9%
- % control observed (Echinochloa colona; 500 ml/Acre, 45DAA): 72.9%
- % control observed (Digera arvensis; 400 ml/Acre, 15DAA): 13.9%
- % control observed (Digera arvensis; 400 ml/Acre, 30DAA): 9.3%
- % control observed (Digera arvensis; 400 ml/Acre, 45DAA): 2.1%
- % control observed (Digera arvensis; 500 ml/Acre, 15DAA): 19.5%
- % control observed (Digera arvensis; 500 ml/Acre, 30DAA): 15.5%
- % control observed (Digera arvensis; 500 ml/Acre, 45DAA): 14.4%
- % control observed (Eleusine indica; 400 ml/Acre, 15DAA): 64%
- % control observed (Eleusine indica; 400 ml/Acre, 30DAA): 56.7%
- % control observed (Eleusine indica; 400 ml/Acre, 45DAA): 53.4%
- % control observed (Eleusine indica; 500 ml/Acre, 15DAA): 65.5%
- % control observed (Eleusine indica; 500 ml/Acre, 30DAA): 57.7%
- % control observed (Eleusine indica; 500 ml/Acre, 45DAA): 55.2%
- % control observed (Acalypha indica; 400 ml/Acre, 15DAA): 7.1%
- % control observed (Acalypha indica; 400 ml/Acre, 30DAA): 3.7%
- % control observed (Acalypha indica; 400 ml/Acre, 45DAA): 2.9%
- % control observed (Acalypha indica; 500 ml/Acre, 15DAA): 25.2%
- % control observed (Acalypha indica; 500 ml/Acre, 30DAA): 12.3%
- % control observed (Acalypha indica; 500 ml/Acre, 45DAA): 9.8%
- % control observed (Dinebra arabica; 400 ml/Acre, 15DAA): 68.2%
- % control observed (Dinebra arabica; 400 ml/Acre, 30DAA): 67%
- % control observed (Dinebra arabica; 400 ml/Acre, 45DAA): 65%
- % control observed (Dinebra arabica; 500 ml/Acre, 15DAA): 72.3%
- % control observed (Dinebra arabica; 500 ml/Acre, 30DAA): 69.1%
- % control observed (Dinebra arabica; 500 ml/Acre, 45DAA): 66%
